Patent publication US12534444B2, “Treatment of cancer/inhibition of metastasis” (Celex Oncology Innovations Limited, priority 2010, dated 2026)

How the values were obtained:
[1] = system: Mat-LyLu cells; test: Transverse migration assay (Transwell); format: cell-based, rat
Method: This assay was used to represent the ability of cells to migrate as they intra/extravasate. […] The insert 602 has a migration filter membrane 605 in its base with 8 μm pores 606 extending therethrough.
Cells 607 were plated at a density of 2×10^4/ml on the filter membrane 605 and placed under a growth medium 608 containing 1% foetal bovine serum (FBS). A chemotactic gradient was created across the filter membrane 605 by placing growth medium 609 containing 10% FBS in the lower section 604 of the chamber.
Cells were allowed to migrate across the filter membrane 605 over a period of 24 hours, cells migrating and adhering to the underside of the filter membrane 605.
At the end of each assay, non-migrated cells were removed from the upper surface of the insert 602 with two different swabs
The number of cells migrating to the underside of the insert 602 was determined using crystal violet staining. Migrated cells were fixed for 15 minutes with ice-cold methanol. Then 0.5% crystal violet (in 25% methanol) was added for 15 minutes. The inserts were swabbed again and then washed in water and allowed to dry. Cells were then counted using twelve separate fields of view per insert (×200 magnification).
With the exception of single cell adhesion tests, which are discussed in the following paragraph, experiments were carried out under either; • (i) normal normoxic conditions ([…], 5% carbon dioxide), or • (ii) following 24 hours hypoxic pre-treatment (2% O2, 5% CO2, 93% N2) continued during the assays.

[2] = system: MDA-MB-231 cells; test: Single-cell adhesion assay (SCAMA, detachment negative pressure); format: cell-based, human
Method: FIG. 4 is a schematic illustration of the single-cell adhesion measurement apparatus (SCAMA) first described in the paper by Palmer et al. (2008). Human breast cancer cells from the MDA-MB-231 cell line were plated at a density of 2.5×10^4 cells/ml and left to settle in a cell culture dish 401 for 48 hours prior to measurements. Medium was removed and 2 ml of the drug under study was applied for 10 minutes. Adhesion was measured using a glass micropipette 402 connected to a vacuum pump 403 via plastic tubing 404. The tip of the micropipette was drawn to about 20 μm (range, 17-24 μm) tip diameter. The vacuum pump was used to create negative pressure inside a reservoir 405 so that the negative pressure could be applied to the tip of the micropipette by pressing the thumb to the open end of a sealable T-piece 406. […] The pressure was measured using a digital manometer 409 connected to a computer 410 via a RS232 cable 411. Using a micromanipulator 412, the micropipette 402 was positioned on the periphery of a single cell. […] The negative pressure required to detach the cell was recorded on the computer as a pressure spike. The peak of the spike (“detachment negative pressure” (DNP)) was used as a measure of the cell's adhesiveness. Using this technique, several recordings could be made from a single dish within minutes. […] In order to test for the reversibility of a given effect, the pharmacological agent was washed off, fresh medium was added and the plate was incubated for a further 10 minutes prior to re-measurement. Each treatment was carried out on at least two dishes of cells, at least 100 cells per dish were measured, and the experiment was repeated three times (with corresponding controls). In the single cell adhesion experiments, hypoxia was induced chemically by application of hydrogen peroxide (1-500 μM) for 24 hours.

## COc1ccccc1OCC(O)CN1CCN(CC(=O)Nc2c(C)cccc2C)CC1 (stereo not drawn) [ranolazine]
[1]; Hypoxia, 20 μM
  TRANSVERSE MIGRATION: reduced the transverse migration of the cells in a statistically significant way
[1]; Hypoxia, 20 μM, listed as RANOLAZINE
  TRANSVERSE MIGRATION: decreased
[1]; Hypoxia, 50 μM
  TRANSVERSE MIGRATION: reduced the transverse migration of the cells in a statistically significant way
[1]; Hypoxia, 50 μM, listed as RANOLAZINE
  TRANSVERSE MIGRATION: decreased
[1]; Hypoxia, 300 μM
  TRANSVERSE MIGRATION: reduced the transverse migration of the cells in a statistically significant way
[1]; Hypoxia, 300 μM, listed as RANOLAZINE
  TRANSVERSE MIGRATION: decreased
[1]; Normoxia, 20 μM
  TRANSVERSE MIGRATION: reduced the transverse migration
[1]; Normoxia, 20 μM, listed as RANOLAZINE
  TRANSVERSE MIGRATION: decreased
[1]; Normoxia, 50 μM
  TRANSVERSE MIGRATION: reduced the transverse migration
[1]; Normoxia, 50 μM, listed as RANOLAZINE
  TRANSVERSE MIGRATION: decreased
[1]; Normoxia, 300 μM
  TRANSVERSE MIGRATION: not statistically significant
[1]; Normoxia, 300 μM, listed as RANOLAZINE
  TRANSVERSE MIGRATION: no effect
[1]; higher concentrations tested, TTX 1 μmol
  potency on transverse migration compared with positive control TTX: more potent than the toxin (TTX)
[2]; Hypoxia (chemically induced, hydrogen peroxide 24 hours), 0.1 μM
  ADHESION: increased
[2]; Hypoxia (chemically induced, hydrogen peroxide 24 hours), 1 μM
  ADHESION: continued to increase
[2]; Hypoxia (chemically induced, hydrogen peroxide 24 hours), 1 μM, listed as RANOLAZINE
  ADHESION: increased
[2]; Hypoxia (chemically induced, hydrogen peroxide 24 hours), 10 μM
  ADHESION: continued to increase
[2]; Hypoxia (chemically induced, hydrogen peroxide 24 hours), 10 μM, listed as RANOLAZINE
  ADHESION: decreased
[2]; Hypoxia (chemically induced, hydrogen peroxide 24 hours), 100 μM
  ADHESION: continued to increase
[2]; Hypoxia (chemically induced, hydrogen peroxide 24 hours), 100 μM, listed as RANOLAZINE
  ADHESION: no benefit
[2]; Normoxia, 0.1 μM
  ADHESION: no effect
[2]; Normoxia, 0.5 μM
  ADHESION: increased
[2]; Normoxia, 1 μM
  ADHESION: increased
[2]; Normoxia, 10 μM
  ADHESION: increased
[2]; Normoxia, 20 μM
  ADHESION: increased
[2]; Normoxia, 100 μM
  ADHESION: increased
[2]; before convergence at the higher drug concentrations
  effect on adhesion in hypoxia compared with normoxia: approximately 10 fold
